What was measured:
p53 = p53 acetylation Western blot in U2OS cells; assay type: cell-based, human; conditions: 6 hours, TSA 10 mM
Experimental: U2OS cells were treated with piperlongumine (SP), the HDAC inhibitor TSA (trichostatin A ([…])) or the control DMSO for 6 hours. Cell extracts were fractionated in SDS-PAGE gel and analyzed by western blot.

MMTV-PyVT mammary tumor = experiment: MMTV-PyVT spontaneous mammary tumor mouse model; assay type: in vivo
Excerpt: MMTV-PvVT (FVB/N-Tg) transgenic mice develop multifocal mammary tumor (from hyperplasia to metastatic) with a high incidence of metastasis (Mice were obtained from the NCI repository). This mouse model has been widely used for the correlation studies of human cancer (Guy et al., Moll. Cell. Biol. 12: 954-961, 1992). In addition, this onco-mouse model has been used to evaluate the effectiveness of potential drug therapies. Generally, due to aggressiveness of tumor growth and spread in this mouse-model, only a combination of chemo-drugs is effective in tumor growth inhibition. MMTV-PyVT mice were maintained until mammary tumor size reached to 6 mm, and then piperlongumine (2.4 mg/kg) or vehicle (DMSO) was given daily by i.p. for 13 days. Tumor size was measured every 4 days (See FIGS. 31 and 32).
We compared the anti-tumor activity of piperlongumine (SP2007) with taxol, a well known chemo drug, in the MMTV-PyVT tumor mouse model as described above (8 mice per group). When tumor sizes grew to ˜5-6 mm in diameter, SP2007 (2.4 mg/kg/day) or Taxol (Paclitaxel, 10 mg/kg/day) was administered intraperitoneally (I.P.) daily for two weeks. After two weeks treatment, mice were sacrificed, and mammary tumors excised and the tumor sizes measured. […] The size of the grossly dissected tumors was measured using the formula: mean diameter=(A+B)/2.

[1] = tested on: immortalized human breast epithelial cells; experiment: DNA damage markers in immortalized human breast epithelial cells; assay type: cell-based; conditions: taxol 10 nM
Excerpt: (§1) The conditions and time of exposure are indicated in the legend of the figure.

[2] = tested on: EJ bladder carcinoma cells; experiment: Persistent effects after removal of the compound in EJ cells; assay type: cell-based, human; conditions: 3 hrs treatment, washed, another 6 hrs in medium without compound
Experimental: EJ bladder carcinoma cells were treated with SP2007 (P10: 10 μM and P20: 20 μM), taxol (T10: 10 nM and T20: 20 nM) or DMSO vehicle control for either 20 hrs or 3 hrs. For the 20 hrs experiment, the percentages of remaining living cells ware measured on the end of the 20 hrs treatment time point. […] For the 3 hrs experiment, cells were washed 3 times with PBS after treatment with the and incubated for another 6 hrs in growing medium without SP2007, taxol or DMSO.

[3] = tested on: EJ bladder carcinoma and U2OS osteosarcoma cell lines; experiment: DNA damage in EJ bladder carcinoma and U2OS osteosarcoma cell lines; assay type: cell-based, human
Excerpt: as §1

CC(/C=C/C(=O)NO)=C\[C@@H](C)C(=O)c1ccc(N(C)C)cc1 [TSA, reference compound]
total amount of p53 (p53): did not increase

CC(=O)O[C@H]1C(=O)[C@@]2(C)[C@H]([C@H](OC(=O)c3ccccc3)[C@]3(O)C[C@H](OC(=O)[C@H](O)[C@@H](NC(=O)c4ccccc4)c4ccccc4)C(C)=C1C3(C)C)[C@]1(OC(C)=O)CO[C@@H]1C[C@@H]2O [Taxol, reference compound]
secondary tumors (MMTV-PyVT mammary tumor; SP2007 2.4 mg/kg/day or Taxol 10 mg/kg/day i.p. for two weeks): moderate and secondary tumors appeared | deaths during treatment (MMTV-PyVT mammary tumor; Taxol 10 mg/kg/day i.p. daily for two weeks): two of the Taxol-treated mice died at day 10 | phosphorylated gamma-H2AX and p53 [1]: results in the induction | killing of cancer cells after removal of the compound [2]: significantly weakened

COc1cccc2c1C(=O)c1c(O)c3c(c(O)c1C2=O)C[C@@](O)(C(=O)CO)C[C@@H]3O[C@H]1C[C@H](N)[C@H](O)[C@H](C)O1 [adrimycin, reference compound]
DNA damage (phosphorylated gamma-H2AX levels) [3]: results in the induction of DNA damage
